Results from patent US20250122160A1, “PROTEIN TYROSINE PHOSPHATASE INHIBITORS AND METHODS OF USE THEREOF” (Calico Life Sciences LLC, priority 0001, published 2025).

Tests used:
[1] = biological target: T1, His tagged full-length PTPN1 protein (Homo sapiens, UniProt P18031); assay: Mobility shift assay (MSA) to determine potency of PTPN1 inhibitors; type: biochemical; details: 0.5 nM enzyme, 2 μM substrate
T1 construct: made in house
T1 sequence (P18031 with tags, fused parts or gaps): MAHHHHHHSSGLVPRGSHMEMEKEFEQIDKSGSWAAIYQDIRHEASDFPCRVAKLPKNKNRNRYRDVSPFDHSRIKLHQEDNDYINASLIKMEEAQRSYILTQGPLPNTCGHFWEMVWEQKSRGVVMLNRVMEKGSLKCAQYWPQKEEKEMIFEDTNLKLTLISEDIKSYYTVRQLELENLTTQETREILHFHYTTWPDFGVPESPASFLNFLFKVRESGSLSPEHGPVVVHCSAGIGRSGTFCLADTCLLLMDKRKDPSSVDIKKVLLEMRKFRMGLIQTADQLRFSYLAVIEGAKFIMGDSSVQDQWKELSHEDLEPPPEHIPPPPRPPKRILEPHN
Procedure, shortened: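 His-tagged full-length human PTPN1 (0.5 nM) preincubated with compound 10 min at room temperature in pH 7.5 HEPES buffer with EGTA, EDTA, Tween 20 and DTT. Dephosphorylation of 2 μM fluorescent phospho-insulin-receptor peptide over 10 min measured by mobility shift. IC50 from % inhibition across a 12-point, 1:3 dilution series.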

[2] = tested on: MC-38 murine colon adenocarcinoma; assay: In vivo efficacy in MC38 mouse tumor model
Procedure: All experiments were conducted in compliance with AbbVie's Institutional Animal Care and Use Committee and the National Institutes of Health Guide for Care and Use of Laboratory Animals guidelines in a facility accredited by the Association for the Assessment and Accreditation of Laboratory Animal Care. C57Bl/6 female mice were obtained from Charles River (Wilmington, MA). The mice were group-housed 10 per cage. Food and water were available ad libitum. Animals were acclimated to the animal facilities for a period of at least one week prior to commencement of experiments. Animals were tested in the light phase of a 12-hour light:12-hour dark schedule (lights on 0600 hours).
Cells were grown to passage 3 in vitro. A total of 1×10^5 viable MC-38 cells were inoculated subcutaneously into the right flank of female C57Bl/6 mice (7-12 weeks old) on Day 0. […] Tumor volume was calculated three times weekly. Measurements of the length (L) and width (W) of the tumor were taken via electronic caliper and the volume was calculated according to the following equation: V=L×W^2/2 using Study Director Version 3.1.399.22 (Studylog Systems, Inc, CA, USA). […] Tumor growth inhibition (TGI) was calculated as TGI=1−(Mean TVTimepoint(Treatment)/Mean TVTimepoint(Vehicle)) for each timepoint that tumor volumes were measured. […]

[3] = tested on: pSTAT5 in CD3+ T cells; assay: pSTAT5 flow cytometry assay in mouse whole blood; type: in vivo; details: day 8 of dosing
Procedure: Whole blood was drawn into EDTA powder coated tubes by cardiac puncture from mice on day 8 of dosing with Compound 118 (2 hours after the 16th dose). 90 μL of whole blood were stimulated with 10 μL of murine IL-2 to achieve a final concentration of 100 ng IL-2/mL (R&D Systems. Minneapolis, MN, cat #402-ML) for 20 minutes at 37° C. 5% CO2. After stimulation. 1.8 mL of prewarmed BD Phosflow Lyse/Fix Buffer (BD Biosciences. San Jose. CA) was added for 20 minutes at 37° C. Cells were washed twice in FACS buffer (Dulbecco's PBS with 0.2% BSA) and incubated for 30 minutes on ice in cold Perm Buffer III (BD Biosciences. San Jose. CA). Cells were washed with FACS buffer and resuspended in 50 μL of FACS buffer with antibodies and stained for 3 hours at room temperature with gentle shaking. […] After staining, cells were washed twice with FACS buffer, and the samples were acquired on a BD LSRFortessa™ X20 flow cytometers (BD Biosciences. San Jose, CA) and analyzed with FLowJo V10 software (FlowJo, Ashland, OR). The mean fluorescence intensity (MFI) of pSTAT5 as a measure of the amount of phosphorylated STAT5 in the CD3+ T cell population from vehicle or Compound 118 treated animals was reported.

[4] = tested on: IP10; assay: Cytokine measurement in mouse plasma (IP10); type: in vivo; details: day 8 of dosing
Procedure: Whole blood was drawn into EDTA powder coated tubes by cardiac puncture from mice on day 8 of dosing with Compound 118 (2 hours after the 16th dose) and plasma was prepared by centrifugation. Cytokines in plasma were measured using the Th1/Th2 Cytokine & Chemokine 20-Plex Mouse ProcartaPlex™ Panel 1 (Invitrogen, Carlsbad, CA). IP10 levels (pg/mL) in vehicle or Compound 118 treated animals were reported.

[5] = tested on: Granzyme B+ cells within CD8+ T cells; assay: Granzyme B staining of CD8 T cells flow cytometry assay in mouse spleen; type: in vivo; details: day 8 of dosing
Procedure: Mice were sacrificed on day 8 of dosing with Compound 118 (2 hours after the 16th dose) and spleens were excised. Spleens were dissociated with a gentleMACS dissociator (Miltenyi Biotec. Bergisch Gladbach. Germany), red blood cells lysed, and single cell suspensions were prepared. Splenocytes were stained with Zombie UV™ Fixable Viability kit (Biolegend. San Diego, CA) diluted in Dulbecco's PBS for 10 minutes at room temperature to exclude dead cells followed by staining for surface markers for 45 minutes on ice using the following flow cytometry antibodies diluted in autoMACS Running Buffer (Miltenyi Biotec. Bergisch Gladbach, Germany); Brilliant Violet 510)-labeled anti-CD45. Brilliant Ultraviolet 395-labeled anti-CD3. Brilliant Violet 786-labeled anti-CD4. APC/Cy7-labeled anti-CD8. Cells were washed twice with autoMACS Running Buffer, permeabilized with Fixation/Permeabilization buffer (FoxP3/Transcription Factor Staining Buffer Set; eBioscience) and stained intracellularly with PE-labeled anti-Granzyme B antibody diluted in Permeabilization buffer (FoxP3/Transcription Factor Staining Buffer Set; eBioscience, San Diego, CA) for 1 hour on ice. After staining, cells were washed twice with autoMACS Running Buffer, and the samples were acquired on a BD LSRFortessa™ X20 flow cytometers (BD Biosciences, San Jose, CA) and analyzed with FLowJo V10 software (FlowJo, Ashland, OR). […]

[6] = biological target: T2, His tagged PTPN2 (TC45) protein (Homo sapiens, UniProt P17706); assay: Mobility shift assay (MSA) to determine potency of PTPN2 inhibitors; type: biochemical; details: 0.5 nM enzyme, 2 μM substrate
T2 construct: made in house
T2 sequence (P17706 with tags, fused parts or gaps isoform P17706-2): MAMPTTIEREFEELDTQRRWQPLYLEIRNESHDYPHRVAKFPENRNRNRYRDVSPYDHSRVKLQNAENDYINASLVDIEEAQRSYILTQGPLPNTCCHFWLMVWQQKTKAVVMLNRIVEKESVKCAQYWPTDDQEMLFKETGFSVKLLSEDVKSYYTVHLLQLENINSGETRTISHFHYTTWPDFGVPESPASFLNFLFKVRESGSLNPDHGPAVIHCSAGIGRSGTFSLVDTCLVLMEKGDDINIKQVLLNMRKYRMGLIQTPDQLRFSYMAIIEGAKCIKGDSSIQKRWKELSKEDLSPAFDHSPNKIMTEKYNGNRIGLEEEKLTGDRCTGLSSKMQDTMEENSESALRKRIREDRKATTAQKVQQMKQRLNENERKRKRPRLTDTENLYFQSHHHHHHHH
Procedure, shortened: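 His-tagged human PTPN2 (TC45), 0.5 nM, preincubated 10 min at room temperature with compound (12-point, 1:3 dilutions) in HEPES pH 7.5 buffer with EGTA, EDTA, Tween 20 and DTT. Then 2 μM OG488-labelled phospho-insulin-receptor peptide was added for 10 min and quenched. % conversion was read by mobility shift, and IC50 came from % inhibition.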

Row | SMILES | IC50 [1] | tolerability ([2]; 10 mg/kg/dose oral BID for 21 days) | tumor response observed ([2]; within 7-10 days of treatment) | pSTAT5 levels in whole blood T cells, fold higher than vehicle control [3] | IP10 levels in plasma, fold higher than vehicle control [4] | frequency of granzyme B producing cells within CD8+ T population in spleen, fold higher than vehicle control [5] | IC50 [6]
1 | CC(C)CCN[C@@H]1CCc2cc(O)c(N3CC(=O)NS3(=O)=O)c(F)c2C1 (single isomer, unassigned) [Compound 118] | 0.001 to 0.01 µM | well tolerated, without obvious adverse health events | apparent tumor stasis and shrinkage | 1.6 fold | 1.7 fold | 3.9 fold | –
2 | CC(C)CCN[C@@H]1CCc2cc(O)c(N3CC(=O)NS3(=O)=O)c(F)c2[C@H]1O [Compound 406, 5-{(7R,8R)-1-fluoro-3,8-dihydroxy-7-[(3-methylbutyl)amino]-5,6,7,8-tetrahydronaphthalen-2-yl}-1λ^6,2,5-thiadiazolidine-1,1,3-trione] | > 0.1 µM | – | – | – | – | – | 0.01 to 0.1 µM
3 | NCC(F)(F)CCCN[C@@H]1CCc2cc(O)c(N3CC(=O)NS3(=O)=O)c(F)c2C1 [Compound 409, 5-{(7R)-7-[(5-amino-4,4-difluoropentyl)amino]-1-fluoro-3-hydroxy-5,6,7,8-tetrahydronaphthalen-2-yl}-1λ^6,2,5-thiadiazolidine-1,1,3-trione] | 0.001 to 0.01 µM | – | – | – | – | – | 0.001 to 0.01 µM
4 | CC(C)CCN[C@H]1Cc2c(cc(O)c(N3CC(=O)NS3(=O)=O)c2F)C[C@@H]1O [Compound 411, 5-{(6S,7S)-1-fluoro-3,6-dihydroxy-7-[(3-methylbutyl)amino]-5,6,7,8-tetrahydronaphthalen-2-yl}-1λ^6,2,5-thiadiazolidine-1,1,3-trione] | 0.001 to 0.01 µM | – | – | – | – | – | < 0.001 µM

Now from value to compound, other results behind:

Row | IC50 [1] | SMILES | tolerability ([2]; 10 mg/kg/dose oral BID for 21 days) | tumor response observed ([2]; within 7-10 days of treatment) | pSTAT5 levels in whole blood T cells, fold higher than vehicle control [3] | IP10 levels in plasma, fold higher than vehicle control [4] | frequency of granzyme B producing cells within CD8+ T population in spleen, fold higher than vehicle control [5] | IC50 [6]
5 | 0.01 to 0.1 µM | O=C1CN(c2c(O)cc3c(c2F)CC(CNCCO)CC3)S(=O)(=O)N1 (centres unmarked) [Compound 403, 5-(1-fluoro-3-hydroxy-7-{[(2-hydroxyethyl)amino]methyl}-5,6,7,8-tetrahydronaphthalen-2-yl)-1λ^6,2,5-thiadiazolidine-1,1,3-trione] | – | – | – | – | – | 0.01 to 0.1 µM
6 | 0.01 to 0.1 µM | NC[C@H]1CCc2cc(O)c(N3CC(=O)NS3(=O)=O)c(F)c2C1 [Compound 404, 5-[(7S)-7-(aminomethyl)-1-fluoro-3-hydroxy-5,6,7,8-tetrahydronaphthalen-2-yl]-1λ^6,2,5-thiadiazolidine-1,1,3-trione] | – | – | – | – | – | 0.01 to 0.1 µM
7 | 0.01 to 0.1 µM | NC[C@@H]1CCc2cc(O)c(N3CC(=O)NS3(=O)=O)c(F)c2C1 [Compound 405, 5-[(7R)-7-(aminomethyl)-1-fluoro-3-hydroxy-5,6,7,8-tetrahydronaphthalen-2-yl]-1λ^6,2,5-thiadiazolidine-1,1,3-trione] | – | – | – | – | – | 0.01 to 0.1 µM
8 | 0.001 to 0.01 µM | CCCCN[C@@H]1CCc2cc(O)c(N3CC(=O)NS3(=O)=O)c(F)c2C1 [Compound 410, 5-[(7R)-7-(butylamino)-1-fluoro-3-hydroxy-5,6,7,8-tetrahydronaphthalen-2-yl]-1λ^6,2,5-thiadiazolidine-1,1,3-trione] | – | – | – | – | – | 0.001 to 0.01 µM
